Tested on: type 1 diabetes patients with peripheral neuropathy
Settings: in vivo

Structure (SMILES): CC(C)C[C@H](NC(=O)[C@H](C)NC(=O)[C@H](CC(C)C)NC(=O)[C@@H]1CCCN1C(=O)[C@H](CCC(N)=O)NC(=O)[C@H](CC(C)C)NC(=O)[C@H](CO)NC(=O)CNC(=O)[C@H](C)NC(=O)CNC(=O)[C@@H]1CCCN1C(=O)CNC(=O)CNC(=O)CNC(=O)[C@H](CC(C)C)NC(=O)[C@H](CCC(=O)O)NC(=O)[C@@H](NC(=O)[C@H](CCC(N)=O)NC(=O)CNC(=O)[C@@H](NC(=O)[C@H](CCC(N)=O)NC(=O)[C@H](CC(C)C)NC(=O)[C@H](CC(=O)O)NC(=O)[C@H](CCC(=O)O)NC(=O)[C@H](C)NC(=O)[C@@H](N)CCC(=O)O)C(C)C)C(C)C)C(=O)N[C@@H](CCC(=O)O)C(=O)NCC(=O)N[C@@H](CO)C(=O)N[C@@H](CC(C)C)C(=O)N[C@@H](CCC(N)=O)C(=O)O [C-peptide, Recombinant human C-peptide]
- AEs of any severity: Abdominal pain: 3
- AEs of any severity: Allergic urticaria: 1
- AEs of any severity: Anemia: 1
- AEs of any severity: Aptyalism: 1
- AEs of any severity: Arterial disorder: 1
- AEs of any severity: Arthralgia: 3
- AEs of any severity: Arthritis: 1
- AEs of any severity: Asthma: 1
- AEs of any severity: Back pain: 2
- AEs of any severity: Blister: 2
- AEs of any severity: Bronchitis: 1
- AEs of any severity: Burning sensation: 1
- AEs of any severity: Candidiasis: 2
- AEs of any severity: Cardiac arrhythmia: 1
- AEs of any severity: Cardiac murmur: 1
- AEs of any severity: Carpal tunnel syndrome: 1
- AEs of any severity: Celiac disease: 1
- AEs of any severity: Chest pain: 2
- AEs of any severity: Cough: 1
- AEs of any severity: Dacryocanaliculitis: 1
- AEs of any severity: Depression: 1
- AEs of any severity: Dermatitis allergic: 1
- AEs of any severity: Dry skin: 1
- AEs of any severity: Epicondylitis: 1
- AEs of any severity: Epistaxis: 1
- AEs of any severity: Exostosis: 2
- AEs of any severity: Eye injury: 1
- AEs of any severity: Eye operation: 1
- AEs of any severity: Fatigue: 2
- AEs of any severity: Feeling abnormal: 3
- AEs of any severity: Fibroma: 1
- AEs of any severity: Flatulence: 1
- AEs of any severity: Food poisoning: 1
- AEs of any severity: Gastritis: 1
- AEs of any severity: Hematuria: 1
- AEs of any severity: Hemorrhage: 1
- AEs of any severity: Hepatic enzyme increase: 2
- AEs of any severity: Hyperaesthesia: 1 (1)
- AEs of any severity: Hypercalcemia: 1
- AEs of any severity: Hyperlipidemia: 1
- AEs of any severity: Hypertension: 1
- AEs of any severity: Hyperthermeasthesia: 2 (2)
- AEs of any severity: Hypoaesthesia: 2
- AEs of any severity: Hypoglycemic coma: 2
- AEs of any severity: Hypotension: 1
- AEs of any severity: Injection site burning: 1 (1)
- AEs of any severity: Joint sprain ankle: 1
- AEs of any severity: Knee injury: 1
- AEs of any severity: Leucopenia: 1
- AEs of any severity: Limb operation: 1
- AEs of any severity: Lymph node enlargement: 1
- AEs of any severity: Macular edema: 1
- AEs of any severity: Menopausal disorder: 1
- AEs of any severity: Menstration irregular: 1
- AEs of any severity: Migraine: 1
- AEs of any severity: Multiple sclerosis: 1
- AEs of any severity: Muscle cramp: 1
- AEs of any severity: Muscle spasm: 1
- AEs of any severity: Muscular atrophy: 1
- AEs of any severity: Musculoskeletal chest: 1
- AEs of any severity: Nasopharyngitis: 23
- AEs of any severity: Otitis: 2
- AEs of any severity: Pain in neck: 1
- AEs of any severity: Pain in shoulder: 1
- AEs of any severity: Panic disorder: 1
- AEs of any severity: Pharyngitis: 2
- AEs of any severity: Pregnancy: 2
- AEs of any severity: Pyrexia: 3
- AEs of any severity: Reflux gastritis: 2
- AEs of any severity: Restless legs syndrome: 1
- AEs of any severity: Rheumarthritis: 1
- AEs of any severity: Rib fracture/injury: 2
- AEs of any severity: ST elevation (ECG): 1
- AEs of any severity: Scar: 1
- AEs of any severity: Sciatica: 1
- AEs of any severity: Season allergy: 1
- AEs of any severity: Sensory loss: 1
- AEs of any severity: Sepsis: 1
- AEs of any severity: Sinusitis: 2
- AEs of any severity: Skin infection: 1
- AEs of any severity: Stress disorder: 1
- AEs of any severity: Sweating increased: 1
- AEs of any severity: Synovial disorder: 1
- AEs of any severity: Tachycardia (stress): 1
- AEs of any severity: Tendinitis: 1
- AEs of any severity: Tendinous contracture: 1
- AEs of any severity: Tendosynovitis stenosans: 1
- AEs of any severity: Tonsilitis: 2
- AEs of any severity: Tooth extraction: 1
- AEs of any severity: Tooth infection: 2
- AEs of any severity: Tooth injury: 1
- AEs of any severity: Torticollis: 1
- AEs of any severity: Upper respiratory tract infection: 1
- AEs of any severity: Vertigo: 1
- AEs of any severity: Vision decreased: 1
- AEs of any severity: Vitamin B12 deficiency: 1
- AEs of any severity: Vitreous hemorrhage: 1
- AEs of moderate intensity (M): Abdomnial pain: M (1)
- AEs of moderate intensity (M): Arthralgia: M (1)
- AEs of moderate intensity (M): Arthritis: M (1)
- AEs of moderate intensity (M): Arthropathy: M (1)
- AEs of moderate intensity (M): Back pain: M (1)
- AEs of moderate intensity (M): Bronchitis: M (1)
- AEs of moderate intensity (M): Carpal tunnel syndrome: M (1)
- AEs of moderate intensity (M): Celiac disease: M (1)
- AEs of moderate intensity (M): Dacryocanaliculitis: M (1)
- AEs of moderate intensity (M): Depression: M (1)
- AEs of moderate intensity (M): Dizziness: M (1)
- AEs of moderate intensity (M): Epicondylitis: M (1)
- AEs of moderate intensity (M): Fatigue: M (1)
- AEs of moderate intensity (M): Feeling abnormal: M (3)
- AEs of moderate intensity (M): Gastritis: M (1)
- AEs of moderate intensity (M): Gastroenteritis: M (3)
- AEs of moderate intensity (M): Hyperlipidemia: M (1)
- AEs of moderate intensity (M): Hypoglycemic coma: M (1)
- AEs of moderate intensity (M): Hypotension: M (1)
- AEs of moderate intensity (M): Knee injury: M (1)
- AEs of moderate intensity (M): Limb operation: M (1)
- AEs of moderate intensity (M): Migraine: M (1)
- AEs of moderate intensity (M): Muscle cramp: M (1)
- AEs of moderate intensity (M): Myalgia: M (2)
- AEs of moderate intensity (M): Nausea: M (1)
- AEs of moderate intensity (M): Otitis: M (1)
- AEs of moderate intensity (M): Pain in extremity: M (2)
- AEs of moderate intensity (M): Paraesthesia: M (1)
- AEs of moderate intensity (M): Pharyngitis: M (1)
- AEs of moderate intensity (M): Pyrexia: M (1)
- AEs of moderate intensity (M): Restless legs syndrome: M (1)
- AEs of moderate intensity (M): Rib fracture/injury: M (1); S (1)
- AEs of moderate intensity (M): ST elevation (ECG): M (1)
- AEs of moderate intensity (M): Sciatica: M (1)
- AEs of moderate intensity (M): Stress disorder: M (1)
- AEs of moderate intensity (M): Tendinous: M (1)
- AEs of moderate intensity (M): Tonsillitis: M (1)
- AEs of moderate intensity (M): Vision decreased: M (1)
- AEs of moderate intensity (M): Vitreous hemorrhage: M (1)
- AEs of severe intensity (S): Diarrhea: S (1)
- AEs of severe intensity (S): Hepatic enzyme increase: S (1)
- AEs of severe intensity (S): Hyperglycemia: S (1)
- AEs of severe intensity (S): Hypoglycemia: M (1); S (1)
- AEs of severe intensity (S): Hypoglycemic coma: S (2)
- AEs of severe intensity (S): Pharyngitis: S (1)
- AEs of severe intensity (S): Pregnancy: S (1)
- AEs of severe intensity (S): Rib fracture/injury: M (1); S (1)
- AEs possibly related to study drug: Hepatic enzyme increase: 1
- AEs possibly related to study drug: Hyperaesthesia: 1 (1)
- AEs possibly related to study drug: Hyperglycemia: 1 (1)
- AEs possibly related to study drug: Hyperthermeasthesia: 2 (2)
- AEs possibly related to study drug: Hypoglycemia: 1
- AEs possibly related to study drug: Injection site burning: 1 (1)
- AEs possibly related to study drug: Pain in extremity: 1
- Adverse drug reactions or significant changes in safety variables: no adverse drug reactions
- Number of AEs probably/possibly related to study drug: Hyperglycemia: 1 (1)
- Number of AEs probably/possibly related to study drug: Hypoglycemia: 1
- Number of AEs: Blood glucose fluctuation: 0
- Number of AEs: Hypoglycemic coma: 2
- Number of AEs: Hypothyroidism: 0
- Number of AEs: Increased appetite: 0
- Occurrences of hypoglycemic coma: 4
- Serious adverse events (SAEs): Two SAEs
- Tolerability: well tolerated
- Local reactions (sc): No local reactions

Reference: patent publication US8410049B2, “Methods and kits for preventing hypoglycemia” (Cebix, priority 2009, dated 2013)
